Measurements reported in patent US20040138316A1 (priority 2001, published 2004).

How the values were obtained:
man = details: cited from earlier work; for toxicity for man: prior art fumigants
parasites = details: prior art fumigants; cited from earlier work
mites = tested on: mites
Procedure: (§1) Laboratory tests were carried out preliminarily both in a ventilated environment and a confined environment by means of treatments by contact or inhalation with 100% commercial n-Hexane, for the sake of brevity called hereinafter “Hexane” with reference to the performance of the practical experimental tests whose execution procedures follow.

insects = tested on: insects
Procedure: as §1

[1] = treated products
Description: (§2) Arthropods were introduced both on nonbiological supports such as glass, printed paper, differently colored fabrics (cotton, silk, linen, skin, wool and synthetic) and on biological materials such as ham, hard wheat pasta and hard crust cheeses. […] Also treated was biological material infested by mites, larvae and adult forms of cheese fly and Galleria mellonella using the entire set of tests described above.

[2] = tested on: mites, larvae and adult forms of cheese fly
Procedure: Subsequent tests were conducted in a closed chamber consisting of a box (70 cm×50 cm by 120 cm high) with polypropylene walls as this material is among those not attacked by Hexane such as other synthetic plastic materials among which polyethylene, polyester, polyethylene terephthalates in addition to aluminum, copper, carbon steel and stainless steel. […] On the bottom of this box was located a circular aluminum tank (dia. 22 cm×height 15 cm) on the bottom of which was arranged a copper coil in which was circulated hot liquid to heat to evaporation the Hexane fed into the tank. The material to be tested was placed in the box which was then closed hermetically.
Tests were performed with two different techniques, to wit, at reduced pressure and at atmospheric pressure.
Both by the reduced pressure technique and the atmospheric pressure technique quantities of Hexane variable from 50 ml to 800 ml were fed through a second tap having in it a silicon tube drawing from the bottom of the aluminum tank. By circulating hot liquid in the heating coil the Hexane present in liquid phase in the tank was held at a temperature of 70° C. to 75° C. for the entire period of experimentation in order to achieve complete evaporation of the Hexane. A blower was placed on the bottom of the box for homogeneous distribution of the Hexane vapors in the treatment environment.
The temperature in the box during all the tests and as a function of the material to be treated (biological or not), was included in the range 5° C. to 75° C. The duration of the treatment was between 1 and 72 hours for both procedures (atmospheric pressure or reduced pressure). In the reduced-pressure tests the pressure was held in a range of 0.5N/cm2 to 5N/cm2.
At the end of treatment time the box was reopened and the Hexane vapors allowed to free themselves outward.
as §2

ClC(Cl)(Cl)Cl [Carbon tetrachloride]
toxicity for man (man): less toxic than carbon sulfide | insecticidal / parasiticidal effectiveness (parasites): slight parasiticidal power

C1CO1 [Ethylene oxide]
toxicity for man (man): highly toxic

CCCCCC [Hexane, n-Hexane]
mites dead 15 minutes after treatment (mites; Petri capsule, treatments of 15 minutes to two hours): all the mites present | toxic activity on arthropods by inhalation (mites; Petri capsule, verifiable after only a few minutes treatment): strong toxic activity | arthropods returned to life within 15 days (mites; returned to optimal conditions 18-20 °C, 80% RH after treatment): none of them returned to life | toxic effect on eggs (hatching) (mites; treatment for longer periods of time): strong hatching reduction | toxic effect on mites by contact (mites; ventilated environment): weak, temporary toxic effect | abatement power on flies, mosquitoes, cockroaches, corrodentia, thysanura (insects; contact): high abatement power | toxic effect on insects by contact (insects; ventilated environment): significant toxic effect | accumulation of toxic substances after treatment [1]: no accumulation of toxic substances | toxicity index for man following contact (man; contact): low toxicity index | acute toxicity index for man by inhalation (man; inhalation): high acute toxicity index | effect on mites and insects infesting cheese products, mattresses, cushions, sheets, carpet, drapes ([2]; Hexane vapors, closed chamber): same result | effect on parasites infesting ham and dressed pork products ([2]; after 2 hours exposure to Hexane vapors, mites, larvae and adult forms of cheese fly): desired effect on nearly all parasites | reclamation of the product (ham, dressed pork products) ([2]; after 48 hours of treatment): complete reclamation | outcome of closed chamber tests compared with Petri capsule ([2]; approximately 720 g per m3 of air, up to 72 hours, surrounding temperature, atmospheric pressure): confirmed the results obtained in Petri capsule | concentration at which parasiticidal treatment is already considerably effective ([2]; inhalation): 250 g per cubic meter of air

CBr [Methyl bromide]
toxicity for man (man): very poisonous

S=C=S [carbon sulfide]
toxicity for man (man): high toxicity | insecticidal / parasiticidal effectiveness (parasites): high insecticidal effectiveness
